Test results published in patent US20250171420A1 (Monte Rosa Therapeutics, Inc., priority 2022, published 2025).

What was measured:
CK1α = target: T1, CK1α (Homo sapiens, UniProt P48729); assay: CK1α NanoBit Assay (HiBiT-tagged CSNK1A1, HEK293 clonal lines); type: cell-based; conditions: HEK293 HiBiT-CSNK1A1/LgBiT cells, 24 h incubation
T1 construct: HEK293 clonal lines with CRISPR KI HiBiT tag on CSNK1A1
Summary of the method: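 HEK293 clones carrying a CRISPR knock-in HiBiT tag on CSNK1A1 and stably expressing LgBiT are treated with compound for 24 hours at 37° C, 5% CO2, then read by luminescence. Response is normalized as 100*(S−N)/(P−N) against plate negative and positive controls, and DC50 values are derived.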

CRBN/DDB1 = CRBN/DDB1 (Homo sapiens, UniProt Q96SW2); assay: HTRF binding assay (displacement of Cy5-thalidomide probe from CRBN/DDB1); conditions: CRBN/DDB1 2.5 nM, Cy5-Thalidomide 100 nM, 30 min; geometric mean; read-out: HTRF_Thali_Disp_DR_geo_IC50
CRBN/DDB1, sequence (Q96SW2 whole entry, species assumed): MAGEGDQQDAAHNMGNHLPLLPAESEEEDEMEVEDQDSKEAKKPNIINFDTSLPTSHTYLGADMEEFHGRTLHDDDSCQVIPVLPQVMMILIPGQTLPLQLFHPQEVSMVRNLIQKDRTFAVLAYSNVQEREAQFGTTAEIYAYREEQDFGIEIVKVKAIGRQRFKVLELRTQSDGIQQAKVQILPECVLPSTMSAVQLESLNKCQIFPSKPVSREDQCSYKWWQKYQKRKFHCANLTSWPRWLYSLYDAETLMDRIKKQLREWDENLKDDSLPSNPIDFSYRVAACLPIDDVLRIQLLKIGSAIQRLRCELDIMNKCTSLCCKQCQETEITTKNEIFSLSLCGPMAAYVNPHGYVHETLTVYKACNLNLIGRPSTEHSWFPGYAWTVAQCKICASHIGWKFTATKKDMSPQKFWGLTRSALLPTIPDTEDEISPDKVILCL
CRBN/DDB1, sequence (Q16531 whole entry partner, species assumed): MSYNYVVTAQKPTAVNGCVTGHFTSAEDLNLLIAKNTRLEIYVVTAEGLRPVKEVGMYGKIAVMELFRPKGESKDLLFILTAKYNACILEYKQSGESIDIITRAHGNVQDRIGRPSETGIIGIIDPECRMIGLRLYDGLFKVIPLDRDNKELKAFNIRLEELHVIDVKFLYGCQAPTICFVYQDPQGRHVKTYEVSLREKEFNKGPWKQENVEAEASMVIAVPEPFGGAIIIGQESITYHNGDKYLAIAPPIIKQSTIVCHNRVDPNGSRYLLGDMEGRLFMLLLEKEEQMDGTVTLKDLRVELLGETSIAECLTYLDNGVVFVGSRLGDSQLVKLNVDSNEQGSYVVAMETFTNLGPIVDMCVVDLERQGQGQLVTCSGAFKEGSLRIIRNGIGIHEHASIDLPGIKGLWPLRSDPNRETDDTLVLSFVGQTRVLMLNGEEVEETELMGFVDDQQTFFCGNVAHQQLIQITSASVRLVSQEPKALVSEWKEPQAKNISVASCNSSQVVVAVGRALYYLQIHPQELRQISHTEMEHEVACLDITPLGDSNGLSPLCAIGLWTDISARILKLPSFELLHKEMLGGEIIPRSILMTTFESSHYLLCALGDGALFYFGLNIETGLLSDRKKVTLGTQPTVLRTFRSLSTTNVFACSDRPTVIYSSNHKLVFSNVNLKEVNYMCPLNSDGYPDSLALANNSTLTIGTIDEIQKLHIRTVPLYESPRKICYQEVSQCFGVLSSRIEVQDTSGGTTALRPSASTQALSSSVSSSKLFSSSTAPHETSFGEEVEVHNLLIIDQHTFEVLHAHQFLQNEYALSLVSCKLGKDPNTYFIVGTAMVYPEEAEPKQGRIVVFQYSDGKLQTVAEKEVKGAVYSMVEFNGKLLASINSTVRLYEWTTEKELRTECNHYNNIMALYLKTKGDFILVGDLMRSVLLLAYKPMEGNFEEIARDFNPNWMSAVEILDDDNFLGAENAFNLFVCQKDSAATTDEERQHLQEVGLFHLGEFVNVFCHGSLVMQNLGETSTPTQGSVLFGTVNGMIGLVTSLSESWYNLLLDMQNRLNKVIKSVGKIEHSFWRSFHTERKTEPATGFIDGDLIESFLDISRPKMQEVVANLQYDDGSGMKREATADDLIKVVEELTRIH
Summary of the method: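 HTRF displacement of Cy5-thalidomide (100 nM) from His-tagged CRBN/DDB1 (2.5 nM) with anti-His Tb cryptate in 20 mM HEPES, 20 mM NaCl, 0.2 mM TCEP, 0.2 mM EDTA, 0.005% Tween20. 10-point 1:3 series, 30 min ambient. 665/620 nm ratio fitted 4-parameter for IC50; Ki by Cheng-Prusoff from geometric-mean IC50.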

LS180 cell line = assay: Growth inhibition, CyQUANT Direct Cell Proliferation Assay, LS180; type: cell-based; conditions: Homo sapiens; LS180, 120 to 168 hours; read-out: LS180 GI50
Protocol: (§1) SKCO1, LS180, and LS174T cell lines were purchased from ATCC. CW2 cell line was purchased from Riken. GP2D cell line was purchased from Sigma/ECACC. All cell lines were cultured in manufacturer's recommended media at 37° C., 5% CO2. Briefly, cells were suspended in 200 μL of media and seeded at 300 to 1,800 cells per well in tissue culture treated 96-well plates with black walls and clear bottom. Plates were incubated overnight and initial (To) read was performed the following day using CyQUANT Direct Cell Proliferation Assay Kit (Thermo Fisher Scientific) according to manufacturer's protocol. All compounds were solubilized in DMSO and prepared at 3-fold serial dilution, using 9 points starting at 30 μM as highest concentration, administered to cells and incubated for 120 to 168 hours, at which point CyQUANT assay measurement was performed using Acumen Cellista instrument (Ex/Em 480/520 nm). Media-only wells were used as blank, and 0.3% DMSO was used as DMSO-treated cell control. Growth inhibition (percent response) was calculated using the following formula in Excel: “=if ([Compound treated Day N]>[Untreated Day 0, AVG], ([Compound treated Day N]−[Untreated Day 0, AVG])/([Untreated Day N]−[Untreated Day 0, AVG])*100, ([Compound Treated Day N]−[Untreated Day 0, AVG])/([Untreated Day 0, AVG])*100)”. GI50 is the response corresponding to the 50% of untreated control.
(§2) GI50 data are reported in Tables 4a, 4b, 4c, 4d, and 4e for compounds in Table 1. In Tables 4a, 4b, 4c, 4d, and 4e below, According to the code, A represents a GI50 value of ≤0.1 μM, B represents a GI50 value>0.1 μM and ≤1 μM, C represents an GI50 value>1 μM.

LS174T cell line = assay: Growth inhibition, CyQUANT Direct Cell Proliferation Assay, LS174T; type: cell-based; conditions: Homo sapiens, 120 to 168 hours, read-out: LS174T GI50
Protocol: as §1, §2

SKCO1 cell line = assay: Growth inhibition, CyQUANT Direct Cell Proliferation Assay, SKCO1; type: cell-based; conditions: Homo sapiens, SK-CO-1; SKCO1, 120 to 168 hours; read-out: SKCO1 GI50
Protocol: as §1, §2

CW2 cell line = assay: Growth inhibition, CyQUANT Direct Cell Proliferation Assay, CW2; type: cell-based; conditions: Homo sapiens, CW-2; CW2, 120 to 168 hours; read-out: CW2 GI50
Protocol: as §1, §2

GP2D cell line = assay: Growth inhibition, CyQUANT Direct Cell Proliferation Assay, GP2D; type: cell-based; conditions: GP2D, 120 to 168 hours; read-out: GP2D GI50
Protocol: as §1, §2

T1 sequence (P48729 whole entry): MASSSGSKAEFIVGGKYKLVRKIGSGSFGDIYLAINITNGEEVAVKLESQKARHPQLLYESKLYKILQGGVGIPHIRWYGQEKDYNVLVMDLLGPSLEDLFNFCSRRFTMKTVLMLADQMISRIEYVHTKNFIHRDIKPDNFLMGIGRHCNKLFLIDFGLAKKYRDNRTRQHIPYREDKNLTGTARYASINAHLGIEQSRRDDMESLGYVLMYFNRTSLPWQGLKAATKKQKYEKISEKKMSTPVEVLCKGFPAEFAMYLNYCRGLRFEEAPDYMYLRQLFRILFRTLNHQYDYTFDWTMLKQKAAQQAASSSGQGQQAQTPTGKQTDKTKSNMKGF
T1 sequence (Q96SW2 whole entry, further chain): as the sequence (Q96SW2 whole entry, species assumed) above
T1 sequence (Q16531 2-1140 partner limits assumed): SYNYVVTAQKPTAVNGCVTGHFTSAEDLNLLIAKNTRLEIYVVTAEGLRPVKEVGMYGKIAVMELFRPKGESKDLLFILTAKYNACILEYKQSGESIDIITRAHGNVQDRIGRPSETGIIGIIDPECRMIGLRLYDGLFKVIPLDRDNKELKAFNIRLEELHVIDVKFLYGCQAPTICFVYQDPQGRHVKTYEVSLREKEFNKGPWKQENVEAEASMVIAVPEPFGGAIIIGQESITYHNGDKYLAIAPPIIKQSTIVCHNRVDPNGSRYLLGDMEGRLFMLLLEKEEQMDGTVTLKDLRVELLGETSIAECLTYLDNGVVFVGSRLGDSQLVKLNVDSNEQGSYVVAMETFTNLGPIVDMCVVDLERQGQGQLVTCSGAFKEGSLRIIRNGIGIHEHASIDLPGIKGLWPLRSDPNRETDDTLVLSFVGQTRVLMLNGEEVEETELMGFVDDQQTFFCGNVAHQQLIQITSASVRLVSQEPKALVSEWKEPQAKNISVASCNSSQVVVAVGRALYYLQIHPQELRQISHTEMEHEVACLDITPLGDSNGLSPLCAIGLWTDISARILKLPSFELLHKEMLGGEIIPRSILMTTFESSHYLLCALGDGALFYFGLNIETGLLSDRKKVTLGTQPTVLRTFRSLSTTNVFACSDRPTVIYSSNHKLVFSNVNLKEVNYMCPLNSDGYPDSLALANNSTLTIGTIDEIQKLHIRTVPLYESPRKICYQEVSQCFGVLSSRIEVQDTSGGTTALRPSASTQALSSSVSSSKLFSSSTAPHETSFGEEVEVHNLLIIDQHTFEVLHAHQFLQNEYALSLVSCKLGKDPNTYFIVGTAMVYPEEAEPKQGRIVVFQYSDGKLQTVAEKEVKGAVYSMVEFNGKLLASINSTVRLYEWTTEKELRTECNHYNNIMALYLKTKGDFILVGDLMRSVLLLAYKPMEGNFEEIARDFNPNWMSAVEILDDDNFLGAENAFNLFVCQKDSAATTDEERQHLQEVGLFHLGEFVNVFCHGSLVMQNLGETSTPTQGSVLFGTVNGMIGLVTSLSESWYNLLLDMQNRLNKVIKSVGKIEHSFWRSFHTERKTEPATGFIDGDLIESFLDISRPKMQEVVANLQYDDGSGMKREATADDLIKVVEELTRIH

Structure (SMILES)	DC50 (CK1α) [µM]	IC50 (CRBN/DDB1) [nM]	GI50 (LS180 cell line) [nM]	GI50 (LS174T cell line) [nM]	GI50 (SKCO1 cell line) [nM]	GI50 (CW2 cell line) [nM]	GI50 (GP2D cell line) [nM]
CC1CN(C(=O)Nc2ccc3c(c2)CN(C2CCC(=O)NC2=O)C3=O)c2ccccc21 (stereo in doubt) [Compound 283, (3R)—N-(2-(2,6-dioxopiperidin-3-yl)-1-oxoisoindolin-5-yl)-3-methylindoline-1-carboxamide]	< 0.1	100 to 1000	100 to 1000	100 to 1000	< 100	100 to 1000	< 100
COC[C@@H]1Cc2ccccc2N1C(=O)Nc1ccc2c(c1)CN(C1CCC(=O)NC1=O)C2=O (stereo in doubt) [Compound 334, (S)—N-(2-((R)-2,6-dioxopiperidin-3-yl)-1-oxoisoindolin-5-yl)-2-(methoxymethyl)indoline-1-carboxamide]	< 0.1	> 1000	100 to 1000	100 to 1000	100 to 1000	100 to 1000	100 to 1000
COC[C@@H]1Cc2ccccc2N1C(=O)Nc1ccc2c(c1)CN(C1CCC(=O)NC1=O)C2=O (stereo in doubt) [Compound 337, (S)—N-(2-((S)-2,6-dioxopiperidin-3-yl)-1-oxoisoindolin-5-yl)-2-(methoxymethyl)indoline-1-carboxamide]	< 0.1	100 to 1000	100 to 1000	100 to 1000	< 100	100 to 1000	100 to 1000
COCc1ccc2c(c1)CCN2C(=O)Nc1ccc2c(c1)CN(C1CCC(=O)NC1=O)C2=O (stereo not shown) [Compound 330, N-(2-(2,6-dioxopiperidin-3-yl)-1-oxoisoindolin-5-yl)-5-(methoxymethyl)indoline-1-carboxamide]	< 0.1	100 to 1000					
COCC1c2ccc(C)cc2CN1C(=O)Nc1ccc2c(c1)CN(C1CCC(=O)NC1=O)C2=O (stereo not shown) [Compound 331, N-(2-(2,6-dioxopiperidin-3-yl)-1-oxoisoindolin-5-yl)-1-(methoxymethyl)-5-methylisoindoline-2-carboxamide]	< 0.1	100 to 1000					
COCC1c2cc(C3CC3)ccc2CN1C(=O)Nc1ccc2c(c1)CN(C1CCC(=O)NC1=O)C2=O (stereo not shown) [Compound 333, 6-cyclopropyl-N-(2-(2,6-dioxopiperidin-3-yl)-1-oxoisoindolin-5-yl)-1-(methoxymethyl)isoindoline-2-carboxamide]	< 0.1	100 to 1000					
COCC1c2cc(C)ccc2CN1C(=O)Nc1ccc2c(c1)CN(C1CCC(=O)NC1=O)C2=O (stereo not shown) [Compound 336, N-(2-(2,6-dioxopiperidin-3-yl)-1-oxoisoindolin-5-yl)-1-(methoxymethyl)-6-methylisoindoline-2-carboxamide]	< 0.1	100 to 1000					
O=C1CCC(N2Cc3cc(NC(=O)N4CCc5c(C6COC6)cccc54)ccc3C2=O)C(=O)N1 (stereo not shown) [Compound 342, N-(2-(2,6-dioxopiperidin-3-yl)-1-oxoisoindolin-5-yl)-4-(oxetan-3-yl)indoline-1-carboxamide]	< 0.1	100 to 1000					
COC(C)c1cccc2c1CCN2C(=O)Nc1ccc2c(c1)CN(C1CCC(=O)NC1=O)C2=O (stereo not shown) [Compound 343, N-(2-(2,6-dioxopiperidin-3-yl)-1-oxoisoindolin-5-yl)-4-(1-methoxyethyl)indoline-1-carboxamide]	< 0.1	100 to 1000					
O=C1CCC(N2Cc3cc(NC(=O)N4CCc5cc(C6CCOC6)ccc54)ccc3C2=O)C(=O)N1 (stereo not shown) [Compound 345, N-(2-(2,6-dioxopiperidin-3-yl)-1-oxoisoindolin-5-yl)-5-(tetrahydrofuran-3-yl)indoline-1-carboxamide]	< 0.1	< 100					
O=C1CCC(N2Cc3cc(NC(=O)N4CCc5cc(C6COC6)ccc54)ccc3C2=O)C(=O)N1 (stereo not shown) [Compound 346, N-(2-(2,6-dioxopiperidin-3-yl)-1-oxoisoindolin-5-yl)-5-(oxetan-3-yl)indoline-1-carboxamide]	< 0.1	< 100					
O=C1CCC(N2Cc3cc(NC(=O)N4CCc5ccc(C6COC6)cc54)ccc3C2=O)C(=O)N1 (stereo not shown) [Compound 347, N-(2-(2,6-dioxopiperidin-3-yl)-1-oxoisoindolin-5-yl)-6-(oxetan-3-yl)indoline-1-carboxamide]	0.1 to 1	100 to 1000					
O=C1CCC(N2Cc3cc(NC(=O)N4CCc5cc(C6CCOCC6)ccc54)ccc3C2=O)C(=O)N1 (stereo not shown) [Compound 349, N-(2-(2,6-dioxopiperidin-3-yl)-1-oxoisoindolin-5-yl)-5-(tetrahydro-2H-pyran-4-yl)indoline-1-carboxamide]	< 0.1	100 to 1000					
C[C@@H]1Cc2cccc(F)c2N1C(=O)Nc1ccc2c(c1)CN(C1CCC(=O)NC1=O)C2=O (stereo partly drawn) [Compound 350, (2R)—N-(2-(2,6-dioxopiperidin-3-yl)-1-oxoisoindolin-5-yl)-7-fluoro-2-methylindoline-1-carboxamide]	< 0.1	100 to 1000					
CN1CCN(c2ccc3c(c2)CCN3C(=O)Nc2ccc3c(c2)CN(C2CCC(=O)NC2=O)C3=O)CC1 (stereo not shown) [Compound 351, N-(2-(2,6-dioxopiperidin-3-yl)-1-oxoisoindolin-5-yl)-5-(4-methylpiperazin-1-yl)indoline-1-carboxamide]	0.1 to 1	100 to 1000					
COC[C@H]1Cc2ccccc2N1C(=O)Nc1ccc2c(c1)CN(C1CCC(=O)NC1=O)C2=O (stereo partly drawn) [Compound 352, (2R)—N-(2-(2,6-dioxopiperidin-3-yl)-1-oxoisoindolin-5-yl)-2-(methoxymethyl)indoline-1-carboxamide]	< 0.1	100 to 1000					
CC1Cc2cc(C(F)(F)F)ncc2N1C(=O)Nc1ccc2c(c1)CN(C1CCC(=O)NC1=O)C2=O (stereo not shown) [Compound 353, N-(2-(2,6-dioxopiperidin-3-yl)-1-oxoisoindolin-5-yl)-2-methyl-5-(trifluoromethyl)-2,3-dihydro-1H-pyrrolo[2,3-c]pyridine-1-carboxamide]	< 0.1	100 to 1000					
C[C@@H]1Cc2c(F)cccc2N1C(=O)Nc1ccc2c(c1)CN(C1CCC(=O)NC1=O)C2=O (stereo partly drawn) [Compound 354, (2R)—N-(2-(2,6-dioxopiperidin-3-yl)-1-oxoisoindolin-5-yl)-4-fluoro-2-methylindoline-1-carboxamide]	< 0.1	100 to 1000					
O=C1CCC(N2Cc3cc(NC(=O)N4CCc5cc(-n6cccn6)ccc54)ccc3C2=O)C(=O)N1 (stereo not shown) [Compound 355]	< 0.1	< 100					
C[C@@H]1Cc2ccc(F)cc2N1C(=O)Nc1ccc2c(c1)CN(C1CCC(=O)NC1=O)C2=O (stereo partly drawn) [Compound 356, (2R)—N-(2-(2,6-dioxopiperidin-3-yl)-1-oxoisoindolin-5-yl)-6-fluoro-2-methylindoline-1-carboxamide]	< 0.1	100 to 1000					
O=C1CCC(N2Cc3cc(NC(=O)N4CCc5ccc(C6CCC6)cc54)ccc3C2=O)C(=O)N1 (stereo not shown) [Compound 358, 6-cyclobutyl-N-(2-(2,6-dioxopiperidin-3-yl)-1-oxoisoindolin-5-yl)indoline-1-carboxamide]	< 0.1	100 to 1000					
O=C1CCC(N2Cc3cc(NC(=O)N4CCc5ccc(C6CCOC6)cc54)ccc3C2=O)C(=O)N1 (stereo not shown) [Compound 364, N-(2-(2,6-dioxopiperidin-3-yl)-1-oxoisoindolin-5-yl)-6-(tetrahydrofuran-3-yl)indoline-1-carboxamide]	0.1 to 1	100 to 1000					
O=C1CCC(N2Cc3cc(NC(=O)N4CCc5ccc(C6CCOCC6)cc54)ccc3C2=O)C(=O)N1 (stereo not shown) [Compound 365, N-(2-(2,6-dioxopiperidin-3-yl)-1-oxoisoindolin-5-yl)-6-(tetrahydro-2H-pyran-4-yl)indoline-1-carboxamide]	0.1 to 1	100 to 1000					
